According to US7435837B2, “Dihydrobenzofuranyl alkanamine derivatives and methods for using same” (Wyeth, priority 2003, dated 2008):

Biological target: T1, human 5-hydroxytryptamine-2C (h5-HT2C) receptor (Homo sapiens, UniProt P28335)
T1 construct: expressed in transfected cells; host or cells: CHO (Chinese Hamster Ovary) cells; membranes
T1 sequence (P28335 33-458): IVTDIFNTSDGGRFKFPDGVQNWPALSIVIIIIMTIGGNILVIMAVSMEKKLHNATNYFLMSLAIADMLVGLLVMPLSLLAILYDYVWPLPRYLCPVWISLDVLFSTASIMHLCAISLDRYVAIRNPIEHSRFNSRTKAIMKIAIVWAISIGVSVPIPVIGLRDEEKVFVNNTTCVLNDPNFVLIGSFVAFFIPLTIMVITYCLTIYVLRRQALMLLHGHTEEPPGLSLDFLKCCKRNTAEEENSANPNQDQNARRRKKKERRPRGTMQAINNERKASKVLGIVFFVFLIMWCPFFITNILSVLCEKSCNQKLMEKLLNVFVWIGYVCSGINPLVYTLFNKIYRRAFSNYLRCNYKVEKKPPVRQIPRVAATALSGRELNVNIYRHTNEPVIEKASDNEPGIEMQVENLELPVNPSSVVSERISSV
Test: [125I]DOI binding to membranes of CHO cells expressing the human 5-HT2C receptor
Conditions: [125I]DOI radioligand, CHO cell membranes, room temperature 60 min; read-out: 5-HT2C Affinity Ki

Structure (SMILES) | Ki [nM]
NCC1Cc2c(C(F)(F)F)ccc(Cl)c2O1 (racemic) [Example 14, (±)-[7-chloro-4-(trifluoromethyl)-2,3-dihydro-1-benzofuran-2-yl]methanamine] | 78
COc1ccccc1-c1cc(F)c2c(c1)CC(CN)O2 (racemic) [Example 379, (±)-{[7-fluoro-5-(2-methoxyphenyl)-2,3-dihydro-1-benzofuran-2-yl]methyl}amine] | 453
CNCC1Cc2cc(-c3ccccc3)cc(-c3ccccc3F)c2O1 (racemic) [Example 508, (±)-{[7-(2-fluorophenyl)-5-phenyl-2,3-dihydro-1-benzofuran-2-yl]methyl}methylamine] | 1800
CN(C)C[C@H]1Cc2cc(F)cc(-c3c(Cl)cccc3Cl)c2O1 [Example 547, (R)-[7-(2,6-dichloro-phenyl)-5-Fluoro-2,3-dihydro-benzofuran-2-ylmethyl]dimethylamine] | 1.8
NCC1Cc2cccc(-c3cccc(C(F)(F)F)c3)c2O1 (racemic) [Example 69, (±)-1-{7-[3-(trifluoromethyl)phenyl]-2,3-dihydro-1-benzofuran-2-yl}methanamine] | 96
Cc1cccc(-c2cc(F)c3c(c2)CC(CN)O3)c1 (racemic) [Example 380, (±)-{[7-fluoro-5-(3-methylphenyl)-2,3-dihydro-1-benzofuran-2-yl]methyl}amine] | 424
NCC1Cc2cccc(-c3cccc(C(F)(F)F)c3)c2O1 (single isomer, unassigned; (-)) [Example 135, (−)-1-{7-[3-(trifluoromethyl)phenyl]-2,3-dihydro-1-benzofuran-2-yl}methanamine] | 131
NCC1Cc2cc(F)cc(-c3cncnc3)c2O1 (racemic) [Example 210, (±)-[(5-fluoro-7-pyrimidin-5-yl-2,3-dihydro-1-benzofuran-2-yl)methyl]amine] | 36
NCC1Cc2cc(C(F)(F)F)cc(-c3ccc(F)cc3)c2O1 (racemic) [Example 324, (±)-{[5-(trifluoromethyl)-7-(4-fluorophenyl)-2,3-dihydro-1-benzofuran-2-yl]methyl}amine] | 60
Cc1cccc(C)c1-c1cccc2c1CC(CN)O2 (racemic) [Example 125, (±)-1-[4-(2,6-dimethylphenyl)-2,3-dihydro-1-benzofuran-2-yl]methanamine] | 276
Cc1cccc(C)c1-c1cccc2c1CC(CN)O2 (single isomer, unassigned; (-)) [Example 127, (−)-1-[4-(2,6-dimethylphenyl)-2,3-dihydro-1-benzofuran-2-yl]methanamine] | 20
NCC1Cc2cccc(-c3ccsc3)c2O1 (single isomer, unassigned; (-)) [Example 46, (−)-1-(7-thien-3-yl-2,3-dihydro-1-benzofuran-2-yl)methanamine] | 54
NCC1Cc2cccc(-c3cc4ccccc4o3)c2O1 (racemic) [Example 40, (±)-1-(2′,3′-dihydro-2,7′-bi-1-benzofuran-2′-yl)methanamine] | 122
NCC1Cc2cccc(Nc3ccccc3)c2O1 (racemic) [Example 173, (±)-N-[2-(aminomethyl)-2,3-dihydro-1-benzofuran-7-yl]-N-phenylamine] | 326
NCC1Cc2cccc(Nc3cccc(OC(F)(F)F)c3)c2O1 (racemic) [Example 187, (±)-N-[2-(aminomethyl)-2,3-dihydro-1-benzofuran-7-yl]-N-(3-trifluoromethoxy)phenyl]amine] | 247
CC(C)c1ccccc1-c1cccc2c1OC(CN)C2 (single isomer, unassigned; (-)) [Example 63, (−)-[7-(2-isopropylphenyl)-2,3-dihydro-1-benzofuran-2-yl]methylamine] | 52
NCC1Cc2cccc(Nc3ccc(C(F)(F)F)cc3)c2O1 (racemic) [Example 177, (±)-N-[2-(aminomethyl)-2,3-dihydro-1-benzofuran-7-yl]-N-[4-(trifluoromethyl)phenyl]amine] | 353
N#Cc1ccc(-c2cc(C(F)(F)F)cc3c2OC(CN)C3)cc1 (racemic) [Example 340, (±)-4-[2-(aminomethyl)-5-(trifluoromethyl)-2,3-dihydro-1-benzofuran-7-yl]benzonitrile] | 88
NCC1Cc2cc(C(F)(F)F)cc(-c3cccc(C(F)(F)F)c3)c2O1 (racemic) [Example 322, (±)-{[5-(trifluoromethyl)-7-(3-(trifluoromethyl)phenyl)-2,3-dihydro-1-benzofuran-2-yl]methyl}amine] | 427
COc1cc2c(c(C(C)(C)C)c1)OC(CN)C2 (single isomer, unassigned; (-)) [Example 115, (−)-1-(7-tert-butyl-5-methoxy-2,3-dihydro-1-benzofuran-2-yl)methanamine] | 79

Structure (SMILES) | Ki [nM]
CNCC1Cc2cc(-c3ccccc3)cc(-c3ccccc3OC)c2O1 (racemic) [Example 514, (±)-{[7-(2-methoxyphenyl)-5-phenyl-2,3-dihydro-1-benzofuran-2-yl]methyl}methylamine] | 242
NCC1Cc2cc(-c3ccccc3F)cc(F)c2O1 (racemic) [Example 377, (±)-{[7-fluoro-5-(2-fluorophenyl)-2,3-dihydro-1-benzofuran-2-yl]methyl}amine] | 194
CNCC1Cc2cc(-c3ccc(OC)cc3)cc(F)c2O1 (racemic) [Example 542, (±)-{7-fluoro-5-[4-methoxyphenyl]-2,3-dihydro-1-benzofuran-2-yl}methyl)methylamine] | 372
Cc1ccc(Cl)cc1-c1cc(F)cc2c1O[C@@H](CN)C2 [Example 548, {[(2R)-7-(5-chloro-2-methylphenyl)-5-fluoro-2,3-dihydro-1-benzofuran-2-yl]methyl}amine] | 2.3
CNCC1Cc2cc(-c3ccccc3)cc(-c3ccc(Cl)cc3)c2O1 (racemic) [Example 507, (±)-{[7-(4-chlorophenyl)-5-phenyl-2,3-dihydro-1-benzofuran-2-yl]methyl}methylamine] | 2730
CNCC1Cc2cc(-c3ccccc3)cc(-c3ccc(F)cc3F)c2O1 (racemic) [Example 517, (±)-{[7-(2,4-difluorophenyl)-5-phenyl-2,3-dihydro-1-benzofuran-2-yl]methyl}methylamine] | 2140
Cc1cccc(-c2cc(-c3ccccc3)cc3c2OC(CN)C3)c1 (racemic) [Example 352, (±)-{[7-(3-methylphenyl)-5-phenyl-2,3-dihydro-1-benzofuran-2-yl]methyl}amine] | 876
NCC1Cc2cc(-c3ccc(C(F)(F)F)cc3)cc(F)c2O1 (racemic) [Example 388, (±)-({7-fluoro-5-[4-(trifluoromethyl)phenyl]-2,3-dihydro-1-benzofuran-2-yl}methyl)amine] | 1580
CNCC1Cc2cc(-c3ccc(C(F)(F)F)cc3)cc(F)c2O1 (racemic) [Example 541, (±)-{7-fluoro-5-[4-(trifluoromethyl)phenyl]-2,3-dihydro-1-benzofuran-2-yl}methyl)methylamine] | 316
Cc1ccccc1-c1c(F)ccc2c1OC(CN)C2 (single isomer, unassigned; (+)) [Example 396, (+)-{[6-fluoro-7-(2-methylphenyl)-2,3-dihydro-1-benzofuran-2-yl]methyl}amine] | 0.3
NCC1Cc2cc(Cl)cc(-c3cccc(Cl)c3)c2O1 (racemic) [Example 89, (±)-1-[5-chloro-7-(3-chlorophenyl)-2,3-dihydro-1-benzofuran-2-yl]methanamine] | 40
NCC1Cc2cc(C(F)(F)F)cc(-c3cccc(Cl)c3Cl)c2O1 (racemic) [Example 330, (±)-{[7-(2,3-dichlorophenyl)-5-(trifluoromethyl)-2,3-dihydro-1-benzofuran-2-yl]methyl}amine] | 88
NCC1Cc2cc(-c3cccc(C(F)(F)F)c3)cc(F)c2O1 (racemic) [Example 383, (±)-({7-fluoro-5-[3-(trifluoromethyl)phenyl]-2,3-dihydro-1-benzofuran-2-yl}methyl)amine] | 1760
NCC1Cc2cc(-c3cccc(F)c3)cc(F)c2O1 (racemic) [Example 381, (±)-{[7-fluoro-5-(3-fluorophenyl)-2,3-dihydro-1-benzofuran-2-yl]methyl}amine] | 923
NCC1Cc2cccc(-c3ccccc3)c2O1 (racemic) [Example 36, (±)-1-(7-phenyl-2,3-dihydro-1-benzofuran-2-yl)methanamine] | 15
NCC1Cc2cc(Cl)cc(-c3ccc(F)c(Cl)c3)c2O1 (racemic) [Example 259, (±)-{[5-chloro-7-(3-chloro-4-fluorophenyl)-2,3-dihydro-1-benzofuran-2-yl]methyl}amine] | 69
Cc1cccc(Nc2cccc3c2OC(CN)C3)c1 (racemic) [Example 182, (±)-N-[2-(aminomethyl)-2,3-dihydro-1-benzofuran-7-yl]-N-(3-methylphenyl)amine] | 279
NCC1Cc2cccc(-c3cccc(C(F)(F)F)c3)c2O1 (single isomer, unassigned; (+)) [Example 136, (+)-1-{7-[3-(trifluoromethyl)phenyl]-2,3-dihydro-1-benzofuran-2-yl}methanamine] | 124
Cc1cc2c(c(-c3c(Cl)cccc3Cl)c1)OC(CN)C2 (single isomer, unassigned; (-)) [Example 303, (−)-{[7-(2,6-dichlorophenyl)-5-methyl-2,3-dihydro-1-benzofuran-2-yl]methyl}amine] | 0.2
